Laboratory results: ChEMBL document CHEMBL4406843, “β-Amino acid derivatives as mitochondrial complex III inhibitors of L. donovani: A promising chemotype targeting visceral leishmaniasis” (Eur J Med Chem, 2019)
Calls of active or inactive are those of the source. No cut-off for these calls is given here.

Columns and labels:
[1] = Cytotoxicity against African green monkey Vero cells assessed as cell viability at 25 uM by MTT assay relative to control; type: cell-based; details: chlorocebus sabaeus, read-out: Activity
Leishmania donovani [2] = assay: Antileishmanial activity against promastigote stage of Leishmania donovani MHOM/IN/80/Dd8 harboring luciferase reporter gene at 25 uM after 48 hrs by Steady-Glo luminescence assay relative to control; type: functional; details: MHOM/IN/80/Dd8, 48 h
Leishmania donovani [3] = assay: Antileishmanial activity against Leishmania donovani MHOM/IN/80/Dd8 amastigotes harboring luciferase reporter gene infected in mouse J774 cells at 25 uM after 72 hrs by Steady-Glo luminescence assay relative to control; type: functional; details: MHOM/IN/80/Dd8, J774, 72 h
Leishmania donovani [4] = assay: Antileishmanial activity against Leishmania donovani MHOM/IN/80/Dd8 amastigotes harboring luciferase reporter gene infected in mouse J774 cells at 50 uM after 72 hrs by Steady-Glo luminescence assay relative to control; type: functional; details: MHOM/IN/80/Dd8, J774, 72 h
Leishmania donovani [5] = assay: Antileishmanial activity against Leishmania donovani MHOM/IN/80/Dd8 amastigotes harboring luciferase reporter gene infected in mouse J774 cells at 100 uM after 72 hrs by Steady-Glo luminescence assay relative to control; type: functional; details: MHOM/IN/80/Dd8, J774, 72 h
Leishmania donovani [6] = assay: Antileishmanial activity against Leishmania donovani MHOM/IN/80/Dd8 promastigotes harboring luciferase reporter gene assessed as reduction in parasite viability after 48 hrs by MTT assay; type: functional, organism-based; details: MHOM/IN/80/Dd8, 48 h
Leishmania donovani [7] = assay: Antileishmanial activity against Leishmania donovani MHOM/IN/80/Dd8 amastigotes harboring luciferase reporter gene infected in mouse J774 cells after 48 hrs by Giemsa staining-based microscopic assay; type: functional, organism-based; details: MHOM/IN/80/Dd8, J774, 48 h
[8] = Cytotoxicity against mouse J774 cells assessed as cell viability up to 100 uM after 72 hrs by MTT assay relative to control; type: cell-based; details: read-out: Activity
[9] = Cytotoxicity against BALB/c mouse splenocytes assessed as cell viability at 200 uM after 72 hrs by MTT assay relative to control; type: cell-based, Splenocyte; details: read-out: Activity
[10] = Stability in simulated intestinal fluid at 10 ug/ml measured after 2 hrs by UPLC analysis relative to control; type: ADME; details: read-out: Stability
[11] = Half life in mouse liver microsomes after 1 hr in presence of NADPH by UPLC analysis; type: ADME, Microsome
Leishmania donovani [12] = assay: (§1) Antileishmanial activity against Leishmania donovani promastigotes infected in BALB/c mouse assessed as inhibition in parasite burden in spleen at 50 mg/kg, ip administered for 7 days starting at 15 days post-infection and measured after 1 week post last dose Giemsa staining-based assay relative to control; type: functional
Leishmania donovani [13] = assay: as §1, with “liver” for “spleen”, “100” for “50”; type: functional
Leishmania donovani [14] = assay: as §1, with “200” for “50”; type: functional
[15] = Toxicity in golden hamster infected with Leishmania donovani amastigotes assessed as effect on survival at 12.5 to 200 mg/kg, ip administered on alternative days for 4 weeks starting at 4 weeks post-infection; type: organism-based, Mesocricetus auratus; details: in vivo, 672 h
[16] = Toxicity in golden hamster infected with Leishmania donovani amastigotes assessed as reduction in serum AST level at 50 mg/kg , ip and measured after 10 weeks post infection (reference value: 113 U/L); type: organism-based, Mesocricetus auratus; details: in vivo, 1680 h
[17] = Toxicity in golden hamster infected with Leishmania donovani amastigotes assessed as reduction in serum ALT level at 50 mg/kg , ip and measured after 10 weeks post infection (reference value: 216 U/L); type: organism-based, Mesocricetus auratus; details: in vivo, 1680 h
J774 [18] = assay: Immunostimulatory activity in mouse J774 cells infected with Leishmania donovani promastigotes assessed as increase in IL-2 cytokine production at 50 uM after 48 hrs by ELISA; type: functional, cell-based
J774 [19] = assay: Immunostimulatory activity in mouse J774 cells infected with Leishmania donovani promastigotes assessed as reduction in TGF-beta cytokine production at 50 uM after 48 hrs by ELISA; type: functional, cell-based
Mus musculus = assay: Immunostimulatory activity in BALB/c mouse infected with Leishmania donovani promastigotes assessed as induction of TNF-alpha cytokine production at 50 mg/kg administered for 5 days starting at 15 days post infection and measured after 3 to 7 weeks by ELISA; type: functional, organism-based
Leishmania donovani [20] = assay: Induction of membrane depolarization in Leishmania donovani promastigotes assessed as increase in fluorescence at MIC by DiBAC4 dye based flow cytometry analysis; type: functional, organism-based; details: TDE = time-dependent effect
Leishmania donovani [21] = assay: Induction of membrane depolarization in Leishmania donovani promastigotes assessed as increase in fluorescence at 50 uM by DiBAC4 dye based flow cytometry analysis relative to relative to 0.1% Triton X-100; type: functional
Leishmania donovani [22] = assay: Induction of mitochondrial dysfunction in Leishmania donovani promastigotes assessed as reduction in mitochondrial membrane potential at 50 uM after 3 hrs by JC-1 staining-based flow cytometric analysis (reference value: 7.73%); type: functional; set-up: scale not given: the % may be the effect or the level left
Leishmania donovani [23] = assay: Induction of mitochondrial dysfunction in Leishmania donovani promastigotes assessed as reduction in mitochondrial membrane potential at 50 uM after 6 hrs by JC-1 staining-based flow cytometric analysis (reference value: 7.73%); type: functional; set-up: scale not given: the % may be the effect or the level left
Leishmania donovani [24] = assay: Induction of mitochondrial dysfunction in Leishmania donovani promastigotes assessed as reduction in mitochondrial membrane potential at 50 uM after 12 hrs by JC-1 staining-based flow cytometric analysis (reference value: 7.73%); type: functional; set-up: scale not given: the % may be the effect or the level left
Leishmania donovani [25] = assay: Induction of mitochondrial membrane depolarization in Leishmania donovani promastigotes assessed as distorted mitochondria at 50 uM after 24 hrs by TEM analysis; type: functional, organism-based
Leishmania donovani [26] = assay: Induction of apoptosis in Leishmania donovani promastigotes assessed as necrotic cells at 50 uM after 24 hrs by Annexin-V/propidium iodide staining based flow cytometric method (reference value: 0.06%); type: functional
Leishmania donovani [27] = assay: Induction of apoptosis in Leishmania donovani promastigotes assessed as early apoptotic cells at 50 uM after 48 hrs by Annexin-V/propidium iodide staining based flow cytometric method (reference value: 5.79%); type: functional
Leishmania donovani [28] = assay: Induction of bio-energetic collapse in Leishmania donovani promastigotes assessed as reduction in ATP level at 50 uM after 48 hrs by bioluminescence based method relative to control; type: functional; set-up: scale not given: the % may be the effect or the level left
Leishmania donovani [29] = assay: Inhibition of succinate-ubiquinone oxidoreductase in Leishmania donovani promastigotes mitochondria at 8.1 to 50 uM using succinate as substrate in presence fo DCPIP by photometry analysis
Leishmania donovani [30] = assay: Inhibition of ubiquinol cytochrome c reductase in Leishmania donovani promastigotes mitochondria at 8.1 to 50 uM using decylubiquinol as substrate in presence of cytochrome c
Leishmania donovani [31] = assay: Inhibition of […] in Leishmania donovani promastigotes mitochondria at 8.1 to 50 uM using decylubiquinol as substrate in presence of cytochrome c
[32] = Elimination rate constant in BALB/c mouse at 50 mg/kg, ip by HPLC analysis; type: ADME, organism-based; details: in vivo
[33] = Cmax in BALB/c mouse at 50 mg/kg, ip by HPLC analysis; type: ADME, organism-based; set-up: dose 50 mg/kg, route intraperitoneal; details: in vivo
[34] = AUC(0 to infinity) in BALB/c mouse at 50 mg/kg, ip by HPLC analysis; type: ADME, organism-based; set-up: dose 50 mg/kg, route intraperitoneal, time infinity; details: in vivo
[35] = Clearance in BALB/c mouse at 50 mg/kg, ip by HPLC analysis; type: ADME, organism-based; details: in vivo

## CCOC(=O)C(C(=O)c1ccc(OC)cc1)C(NC(C)=O)c1cccc2ccccc12 (stereo unspecified)
[1]
  viability at 25 µM: 99.2%
Leishmania donovani [2]
  inhibition at 25 µM: 85.3%
Leishmania donovani [3]
  inhibition at 25 µM: 64.1%
Leishmania donovani [4]
  inhibition at 50 µM: 93.5%
Leishmania donovani [5]
  inhibition at 100 µM: 95.9%
Leishmania donovani [6]
  IC50: 9.1 µM
Leishmania donovani [7]
  IC50: 16.9 µM
[8]
  viability at 72 h: > 93%
[9]
  viability at 72 h, 200 µM: > 84.3%
[10]
  remaining at 2 h, 10 ug/ml: 80.2%
[11]
  half-life: 5.22 h
Leishmania donovani [12]
  inhibition in vivo at 50 mg/kg: 92.5%
Leishmania donovani [13]
  inhibition in vivo at 100 mg/kg: 92.1%
Leishmania donovani [14]
  inhibition in vivo at 200 mg/kg: 93.1%
[15]
  Activity: Non-Toxic
[16]
  Activity: 92 IU/L
[17]
  Activity: 166 IU/L
J774 [18]
  Activity: inactive
J774 [19]
  Activity: inactive
Mus musculus
  Activity: inactive
Leishmania donovani [20]
  Activity: Tde
Leishmania donovani [21]
  Activity: <=78.5%
Leishmania donovani [22]
  Activity: 8.62%
Leishmania donovani [23]
  Activity: 19.52%
Leishmania donovani [24]
  Activity: 37.26%
Leishmania donovani [25]
  Activity: Active
Leishmania donovani [26]
  Activity: 0.07%
Leishmania donovani [27]
  Activity: 17.8%
Leishmania donovani [28]
  Activity: >67%
Leishmania donovani [29]
  inhibition: inactive
Leishmania donovani [30]
  inhibition: Active
Leishmania donovani [31]
  inhibition: inactive
[32]
  k el: 3.89e-05 s⁻¹
[33]
  Cmax: 2080 ng/mL
[34]
  AUC(0-inf): 1280 ng·h/mL
[35]
  CL/F: 664 mL/min/kg
